Counter-ions that a name gives are not always drawn. Like-named read-outs stand apart in the source and are kept apart here.
Assays:
Assay type in all cases: biochemical
[1] = target: T1, GST fusion human ERK2 protein (Homo sapiens, UniProt P28482); test: ERK2 enzyme assay (1); conditions: read-out: ERK2 enzyme inhibitory activity (1)
T1 construct: purchased Carna Biosciences, Inc; host or cells: E. coli expression system
How it was run: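 Enzyme (2.5 nmol/L, E. coli-expressed) preincubated with compound 15 min at room temperature in HEPES/MgCl2/DTT/Brij35 buffer, pH 7.5; reaction with 4.25 μmol/L FL-Peptide 8 and 43.1 μmol/L ATP for 120 min at 25 °C. Phosphorylated peptide fraction quantified by mobility-shift separation after EDTA stop; IC50 calculated.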

human PI3Kα protein = target: T2, human PI3Kα protein (Homo sapiens, UniProt P42336); test: PI3Kα enzyme assay (ADP-Glo); conditions: read-out: PI3Kα enzyme inhibitory activity
T2 construct: purchased Carna Biosciences, Inc; host or cells: baculovirus expression system
How it was run: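 Biotinylated human PI3Kα (baculovirus-expressed, 4.5 nmol/L) pre-incubated 15 min with compound in Tris-HCl pH 7.5, MgCl2, BSA; reaction 60 min at 25° C with 50 μmol/L PIP2 and 100 μmol/L ATP final. ADP quantified by ADP-Glo luminescence; IC50 calculated.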

[2] = target: T1, GST fusion human ERK2 protein; test: ERK2 enzyme assay (2); conditions: read-out: ERK2 enzyme inhibitory activity (2)
How it was run: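 GST-tagged human ERK2 expressed in E. coli (1.25 nmol/L) was preincubated with compound for 15 min at room temperature in pH 7.5 Hepes buffer with MgCl2, DTT and Brij35. Reaction with FL-Peptide 8 (final 4.25 μmol/L) and ATP (final 1 mmol/L) ran 120 min at 25 °C; EDTA stopped it, and phosphorylated peptide was quantified by mobility-shift separation to derive IC50.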

[3] = 2.5 nmol/L ERK2, ATP 43.1 μmol/L
[4] = 4.5 nmol/L PI3Kα, PIP2 50 μmol/L, ATP 100 μmol/L

T1 sequence (P28482 whole entry, the tested form may be a part): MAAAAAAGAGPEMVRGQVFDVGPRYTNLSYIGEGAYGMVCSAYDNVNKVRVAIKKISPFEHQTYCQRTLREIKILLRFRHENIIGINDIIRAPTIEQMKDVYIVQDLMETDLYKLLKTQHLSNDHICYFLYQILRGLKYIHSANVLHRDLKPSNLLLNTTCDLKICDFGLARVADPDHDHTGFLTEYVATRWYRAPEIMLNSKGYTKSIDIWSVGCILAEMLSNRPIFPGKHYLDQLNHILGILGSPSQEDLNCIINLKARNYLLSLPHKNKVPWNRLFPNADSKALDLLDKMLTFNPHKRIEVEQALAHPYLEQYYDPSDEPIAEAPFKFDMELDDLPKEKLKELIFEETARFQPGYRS
T2 sequence (P42336 whole entry): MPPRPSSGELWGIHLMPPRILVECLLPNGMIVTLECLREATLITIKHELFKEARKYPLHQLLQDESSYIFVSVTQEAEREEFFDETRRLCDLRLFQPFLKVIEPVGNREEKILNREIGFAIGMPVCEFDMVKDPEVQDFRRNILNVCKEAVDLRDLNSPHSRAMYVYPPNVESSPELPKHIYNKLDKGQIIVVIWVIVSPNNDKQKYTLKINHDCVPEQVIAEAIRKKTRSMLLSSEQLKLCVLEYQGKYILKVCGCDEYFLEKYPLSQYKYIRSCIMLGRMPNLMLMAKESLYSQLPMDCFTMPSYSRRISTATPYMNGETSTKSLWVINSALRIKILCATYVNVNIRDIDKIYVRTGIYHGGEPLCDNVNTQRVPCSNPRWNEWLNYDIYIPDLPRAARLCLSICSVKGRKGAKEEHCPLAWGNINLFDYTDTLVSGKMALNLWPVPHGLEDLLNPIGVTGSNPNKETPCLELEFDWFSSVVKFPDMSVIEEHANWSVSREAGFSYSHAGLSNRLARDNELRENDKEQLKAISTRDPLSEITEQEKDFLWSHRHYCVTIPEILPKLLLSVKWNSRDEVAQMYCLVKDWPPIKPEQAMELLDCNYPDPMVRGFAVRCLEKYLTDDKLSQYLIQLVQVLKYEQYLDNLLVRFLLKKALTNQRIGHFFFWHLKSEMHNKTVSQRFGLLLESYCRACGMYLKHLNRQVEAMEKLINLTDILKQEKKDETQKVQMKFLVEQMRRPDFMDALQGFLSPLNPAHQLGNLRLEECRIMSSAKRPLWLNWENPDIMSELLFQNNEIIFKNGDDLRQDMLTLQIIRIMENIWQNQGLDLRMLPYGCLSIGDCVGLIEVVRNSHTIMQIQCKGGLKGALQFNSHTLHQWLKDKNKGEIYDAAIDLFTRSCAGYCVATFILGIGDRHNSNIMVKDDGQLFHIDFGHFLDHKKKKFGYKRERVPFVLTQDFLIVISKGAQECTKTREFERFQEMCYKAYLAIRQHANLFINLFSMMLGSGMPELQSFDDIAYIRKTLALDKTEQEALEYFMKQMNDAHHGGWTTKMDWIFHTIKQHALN
T2 sequence (P27986 whole entry partner): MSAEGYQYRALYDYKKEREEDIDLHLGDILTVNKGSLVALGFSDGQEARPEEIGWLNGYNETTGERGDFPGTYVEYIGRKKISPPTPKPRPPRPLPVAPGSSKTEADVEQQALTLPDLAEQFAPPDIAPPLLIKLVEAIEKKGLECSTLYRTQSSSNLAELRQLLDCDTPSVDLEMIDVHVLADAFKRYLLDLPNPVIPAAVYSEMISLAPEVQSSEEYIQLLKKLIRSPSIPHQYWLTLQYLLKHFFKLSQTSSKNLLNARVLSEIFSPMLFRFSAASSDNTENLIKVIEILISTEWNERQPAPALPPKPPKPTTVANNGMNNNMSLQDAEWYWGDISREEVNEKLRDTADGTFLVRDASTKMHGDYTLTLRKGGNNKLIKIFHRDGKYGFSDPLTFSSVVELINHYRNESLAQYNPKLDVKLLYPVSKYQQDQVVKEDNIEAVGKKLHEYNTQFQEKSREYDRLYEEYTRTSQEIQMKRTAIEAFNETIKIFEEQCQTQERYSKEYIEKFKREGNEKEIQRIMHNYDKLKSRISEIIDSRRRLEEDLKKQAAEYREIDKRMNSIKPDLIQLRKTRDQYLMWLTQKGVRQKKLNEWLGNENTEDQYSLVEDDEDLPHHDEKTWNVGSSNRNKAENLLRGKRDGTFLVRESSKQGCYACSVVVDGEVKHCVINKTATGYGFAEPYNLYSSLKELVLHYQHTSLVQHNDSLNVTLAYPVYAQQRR

IC50 [1, 3] [nM] | IC50 (human PI3Kα protein; [4]) [nM] | IC50 ([2]; 1.25 nmol/L ERK2, ATP 1 mmol/L) [nM] | IC50 ([1]; ERK2 enzyme assay (1)) [nM] | IC50 (human PI3Kα protein) [nM] | IC50 ([2]; ERK2 enzyme assay (2)) [nM] | SMILES
< 1000 | < 1000 | < 1000 | – | – | – | CC(C)c1nnc(Nc2ccc3ncc(-c4cn(C)nc4C4CC4)cc3n2)s1 [Example 0133]
< 1000 | < 1000 | < 1000 | – | – | – | c1nc2ccc(Nc3nnc(C4CCCC4)s3)nc2cc1N1CCn2cnnc2C1 [Example 0091]
– | – | – | < 1000 | < 1000 | < 1000 | CCC(C)c1cnnc(Nc2ccc3ncc(-c4cnn(CCCN5CCCC5)c4)cc3n2)c1 (stereo not drawn) [Example 0294]
– | – | – | < 1000 | < 1000 | 1000 to 10000 | CC(C)Oc1c(-c2cnn(C)c2)cnc2ccc(Nc3nnc(C4CCCC4)s3)nc12 [Example 0359, 5-cyclopentyl-N-(8-isopropyloxy-7-(1-methyl-1H-pyrazol-4-yl)-1,5-naphthyridin-2-yl)-1,3,4-thiadiazole-2-amine]
< 1000 | < 1000 | < 1000 | – | – | – | CC(C)c1nnc(Nc2ccc3ncc(-c4cnn(CCCN5CCOCC5)c4)cc3n2)s1 [Example 0118]
< 1000 | < 1000 | < 1000 | – | – | – | c1nnc(Nc2ccc3ncc(-c4cn[nH]c4)cc3n2)s1 [Example 0032, N-(7-(1H-pyrazol-4-yl)-1,5-naphthyridin-2-yl)-1,3,4-thiadiazole-2-amine hydrochloride]
– | – | – | < 1000 | < 1000 | < 1000 | c1nc2ccc(Nc3nnc(C4CCCC4)s3)nc2cc1-c1cnn(CCCN2CCCC2)c1 [Example 0320]
– | – | – | < 1000 | < 1000 | < 1000 | F[C@@H]1CCN(CCCn2cc(-c3cnc4ccc(Nc5nnc(C6CCCC6)s5)nc4c3)cn2)C1 [Example 0351, (R)-5-cyclopentyl-N-(7-(1-(3-(3-fluoropyrrolidin-1-yl)propyl)-1H-pyrazol-4-yl)-1,5-naphthyridin-2-yl)-1,3,4-thiadiazole-2-amine]
< 1000 | < 1000 | 1000 to 10000 | – | – | – | CC(C)c1nnc(Nc2ccc3ncc(-c4cn(C)nc4-c4ccccc4)cc3n2)s1 [Example 0124, 5-isopropyl-N-(7-(1-methyl-3-phenyl-1H-pyrazol-4-yl)-1,5-naphthyridin-2-yl)-1,3,4-thiadiazole-2-amine]
< 1000 | 10000 to 50000 | 1000 to 10000 | – | – | – | Cc1ccc(Nc2ccc3ncc(-c4cnn(C)c4)cc3n2)nn1 [Example 0151]
– | – | – | < 1000 | < 1000 | < 1000 | CC(C)c1cnnc(Nc2ccc3ncc(-c4cnn(C5CCN(C)CC5)c4)cc3n2)c1 [Example 0370, N-(5-isopropylpyridazin-3-yl)-7-(1-(1-methylpiperidin-4-yl)-1H-pyrazol-4-yl)-1,5-naphthyridine-2-amine]
< 1000 | < 1000 | < 1000 | – | – | – | CC(C)c1cnnc(Nc2ccc3ncc(-c4cnn(C)c4)nc3n2)c1 [Example 0014, N-(5-isopropylpyridazin-3-yl)-3-(1-methyl-1H-pyrazol-4-yl)pyrido[2,3-b]pyrazine-6-amine]
– | – | – | < 1000 | < 1000 | < 1000 | c1nc2ccc(Nc3nnc(C4CCC4)s3)nc2cc1-c1cnn(CCCN2CCCC2)c1 [Example 0235]
< 1000 | < 1000 | < 1000 | – | – | – | c1cc(CN2CCCC2)ncc1Nc1cnc2ccc(Nc3nnc(C4CCCC4)s3)nc2c1 [Example 0086]
– | – | – | < 1000 | < 1000 | < 1000 | NC(=O)CCn1cc(-c2cnc3ccc(Nc4nnc(C5CCCC5)s4)nc3c2)cn1 [Example 0343]
< 1000 | < 1000 | < 1000 | – | – | – | COCc1nn(C)cc1-c1cnc2ccc(Nc3cc(C)cnn3)nc2c1 [Example 0161]
– | – | – | < 1000 | < 1000 | < 1000 | CNC(=O)CCn1cc(-c2cnc3ccc(Nc4nnc(C5CCCC5)s4)nc3c2)cn1 [Example 0342]
< 1000 | < 1000 | < 1000 | – | – | – | c1ncc(Nc2cnc3ccc(Nc4nnc(C5CCCC5)s4)nc3c2)cn1 [Example 0089]
– | – | – | < 1000 | < 1000 | < 1000 | c1cc(Cc2nnc(Nc3ccc4ncc(-c5cnn(CCCN6CCCC6)c5)cc4n3)s2)ccn1 [Example 0266]

IC50 [1, 3] [nM] | IC50 (human PI3Kα protein; [4]) [nM] | IC50 ([2]; 1.25 nmol/L ERK2, ATP 1 mmol/L) [nM] | IC50 ([1]; ERK2 enzyme assay (1)) [nM] | IC50 (human PI3Kα protein) [nM] | IC50 ([2]; ERK2 enzyme assay (2)) [nM] | SMILES
– | – | – | < 1000 | 1000 to 10000 | < 1000 | CC(=O)N1CCC(c2nnc(Nc3ccc4ncc(-c5cnn(C)c5)cc4n3)s2)C1 (stereo not drawn) [Example 0253, 1-(3-(5-((7-(1-Methyl-1H-pyrazol-4-yl)-1,5-naphthyridin-2-yl)amino)-1,3,4-thiadiazol-2-yl)pyrrolidin-1-yl)ethanone]
< 1000 | < 1000 | < 1000 | – | – | – | c1nc2ccc(Nc3cc(C4CCCC4)cnn3)nc2cc1-c1cnn(CCCN2CCCC2)c1 [Example 0016]
– | – | – | < 1000 | 1000 to 10000 | < 1000 | Cn1cc(-c2cnc3ccc(Nc4nnc(C5CCCN5)s4)nc3c2)cn1 (stereo not drawn) [Example 0246, N-(7-(1-methyl-1H-pyrazol-4-yl)-1,5-naphthyridin-2-yl)-5-(pyrrolidin-2-yl)-1,3,4-thiadiazole-2-amine]
– | – | – | < 1000 | < 1000 | < 1000 | COCCCn1cc(-c2cnc3ccc(Nc4cc(C(C)C)cnn4)nc3c2)cn1 [Example 0472]
< 1000 | < 1000 | < 1000 | – | – | – | CCCc1nn(CCCN2CCCC2)cc1-c1cnc2ccc(Nc3nnc(C(C)C)s3)nc2c1 [Example 0147]
< 1000 | < 1000 | < 1000 | – | – | – | CCc1nnc(Nc2ccc3ncc(-c4cnn(C)c4)cc3n2)s1 [Example 0163]
– | – | – | < 1000 | 1000 to 10000 | < 1000 | CC(=O)N1CCCC1c1nnc(Nc2ccc3ncc(-c4cnn(C)c4)cc3n2)s1 (stereo not drawn) [Example 0248, 1-(2-(5-((7-(1-methyl-1H-pyrazol-4-yl)-1,5-naphthyridin-2-yl)amino)-1,3,4-thiadiazol-2-yl)pyrrolidin-1-yl)ethanone]
< 1000 | 1000 to 10000 | < 1000 | – | – | – | COCc1nnc(Nc2ccc3ncc(-c4cnn(C)c4)cc3n2)s1 [Example 0170, 5-(Methoxymethyl)-N-(7-(1-methyl-1H-pyrazol-4-yl)-1,5-naphthyridin-2-yl)-1,3,4-thiadiazole-2-amine]
< 1000 | 1000 to 10000 | < 1000 | – | – | – | COC1CN(c2cnc3ccc(Nc4nnc(C5CCCC5)s4)nc3c2)C1 [Example 0092]
< 1000 | < 1000 | < 1000 | – | – | – | c1nc2ccc(Nc3nnc(C4CCCC4)s3)nc2cc1-c1cnn(CCCN2CCOCC2)c1 [Example 0117]
10000 to 50000 | < 1000 | 10000 to 50000 | – | – | – | c1ccc2ncc(Nc3cnc4ccc(Nc5nnc(C6CCCC6)s5)nc4c3)cc2c1 [Example 0094]
< 1000 | < 1000 | < 1000 | – | – | – | c1cc(CN2CCOCC2)ncc1Nc1cnc2ccc(Nc3nnc(C4CCCC4)s3)nc2c1 [Example 0085]
– | – | – | < 1000 | < 1000 | < 1000 | CS(=O)(=O)Cc1nnc(Nc2ccc3ncc(-c4cnn(CCCN5CCCC5)c4)cc3n2)s1 [Example 0258]
< 1000 | < 1000 | < 1000 | – | – | – | COc1nn(C)cc1-c1cnc2ccc(Nc3nnc(C4CCCC4)s3)nc2c1 [Example 0114]
– | – | – | < 1000 | < 1000 | < 1000 | c1nc2ccc(Nc3nnc(C4CCCC4)s3)nc2cc1-c1cnn(CCCN2CCCCC2)c1 [Example 0344, 5-cyclopentyl-N-(7-(1-(3-(piperidin-1-yl)propyl)-1H-pyrazol-4-yl)-1,5-naphthyridin-2-yl)-1,3,4-thiadiazole-2-amine]
– | – | – | < 1000 | < 1000 | < 1000 | CC(C)c1cnnc(Nc2ccc3ncc(-c4ccnc(O)c4)cc3n2)c1 [Example 0589, 4-(6-((5-isopropylpyridazin-3-yl)amino)-1,5-naphthyridin-3-yl)pyridin-2-ol]
– | – | – | < 1000 | 1000 to 10000 | < 1000 | CNCc1nn(C)cc1-c1cnc2ccc(Nc3nnc(C(C)C)s3)nc2c1 [Example 0383, 5-isopropyl-N-(7-(1-methyl-3-((methylamino)methyl)-1H-pyrazol-4-yl)-1,5-naphthyridin-2-yl)-1,3,4-thiadiazole-2-amine]
< 1000 | < 1000 | < 1000 | – | – | – | c1nc2ccc(Nc3cc(C4CCCCC4)cnn3)nc2cc1-c1cnn(CCCN2CCCC2)c1 [Example 0017]

SMILES | IC50 [1, 3] [nM] | IC50 (human PI3Kα protein; [4]) [nM] | IC50 ([2]; 1.25 nmol/L ERK2, ATP 1 mmol/L) [nM] | IC50 ([1]; ERK2 enzyme assay (1)) [nM] | IC50 (human PI3Kα protein) [nM] | IC50 ([2]; ERK2 enzyme assay (2)) [nM]
C[Si](C)(C)CCOCn1cc(-c2cnc3ccc(Nc4nncs4)nc3c2)cn1 [Example 0025, N-(7-(1-((2-(trimethylsilyl)ethoxy)methyl)-1H-pyrazol-4-yl)-1,5-naphthyridin-2-yl)-1,3,4-thiadiazole-2-amine] | < 1000 | 1000 to 10000 | < 1000 | – | – | –

Source: patent US9783536B2, “Nitrogen-containing heterocyclic compound or salt thereof” (FUJIFILM Corporation, priority 2013, dated 2017)
